Where a chain is given by its changes, count along the chain named. Square brackets hold non-standard residues; d marks the D form. Peptide text beside a SMILES is read from it. pT = C[C@@H](OP(=O)(O)O)[C@H](N)C(=O)O
Tests used:
Bub1^289–359–Bub3^R217A = molecular target: T1, Bub1^289–359–Bub3^R217A (Saccharomyces cerevisiae, UniProt P26449+P41695, R217A); assay: ITC binding to Bub1^289–359–Bub3^R217A; conditions: Bub3 R217A compared with wild type (13- to 25-fold for R217A or R239A)
T1 construct: S. cerevisiae Bub1^289–359 and for full length Bub3; GST (N, cleaved yes); made in house; host or cells: E. coli BL21 DE3 plysS
T1 sequence (P26449 1-341 R217A): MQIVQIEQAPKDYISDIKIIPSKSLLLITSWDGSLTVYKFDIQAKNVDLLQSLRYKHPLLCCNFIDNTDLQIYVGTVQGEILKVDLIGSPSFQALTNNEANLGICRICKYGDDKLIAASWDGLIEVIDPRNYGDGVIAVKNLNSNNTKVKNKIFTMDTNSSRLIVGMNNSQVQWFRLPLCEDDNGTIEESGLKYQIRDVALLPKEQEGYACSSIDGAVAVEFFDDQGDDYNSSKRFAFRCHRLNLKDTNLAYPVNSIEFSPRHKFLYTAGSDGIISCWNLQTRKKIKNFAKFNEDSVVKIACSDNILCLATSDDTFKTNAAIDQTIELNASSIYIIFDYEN
T1 sequence (P41695 289-359): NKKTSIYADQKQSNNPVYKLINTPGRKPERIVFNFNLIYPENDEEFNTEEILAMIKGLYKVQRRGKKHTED
Excerpt: (§1) Because the presence of a phosphate on Thr172^Spc105/Knl1 is essential for high-affinity binding of ScBub1^289–359–Bub3 to MELT^P peptides (Figure 1), we concentrated our mutational analysis on two residues that are directly implicated in the recognition of the peptide’s phospho-threonine, Arg217^Bub3 and Arg239^Bub3. Positively charged residues are invariant at these positions of the Bub3 alignment (Figure 2C). We generated single or double alanine mutants of Arg217^Bub3 and Arg239^Bub3 in the context of ScBub1^289–359–Bub3 and tested their binding affinity for the MELT2^P peptide by ITC.
(§2) cDNA sequences coding for S. cerevisiae Bub1^289–359 and for full length Bub3 were subcloned in the first and second cassettes of pGEX-6P-2rbs vector ([Ciferri et al., 2005]). In this construct, the cDNA encoding Bub1^289–359 was sub-cloned in frame with the gene encoding GST and a cleavage site for PreScission protease, and was translated from the first ribosome-binding site (rbs). Untagged Bub3 was subcloned downstream of the second rbs in the same vector. Expression was carried out in BL21 DE3 plysS cells in LB medium by auto-induction with 0.3% lactose at 18°C for approximately 16 hr. […]
(§3) Binding isotherm was measured at 25°C by isothermal titration calorimetry on a MicroCal ITC200 device (GE Healthcare, Piscataway, NJ). […]

Bub1^289–359–Bub3^R239A = molecular target: T2, Bub1^289–359–Bub3^R239A (Saccharomyces cerevisiae, UniProt P26449+P41695, R239A); assay: ITC binding to Bub1^289–359–Bub3^R239A; conditions: Bub3 R239A compared with wild type (13- to 25-fold for R217A or R239A)
T2 construct: S. cerevisiae Bub1^289–359 and for full length Bub3; ITC experiments with the MELT2^P peptide and Bub1^289–359–Bub3^R239A; GST (N, cleaved yes); made in house; host or cells: E. coli BL21 DE3 plysS
T2 sequence (P26449 1-341 R239A): T1 sequence (P26449 1-341 R217A) with A217R, R239A
T2 sequence (P41695 289-359): T1 sequence (P41695 289-359)
Excerpt: as §1, §2, §3

With CC[C@H](C)[C@H](NC(=O)[C@H](CO)NC(=O)[C@H](CCCNC(=N)N)NC(=O)[C@@H]1CCCN1C(=O)[C@H](Cc1ccccc1)NC(=O)[C@@H](NC(=O)[C@H](CCC(=O)O)NC(=O)[C@@H](NC(=O)[C@H](CCSC)NC(=O)[C@H](CCC(=O)O)NC(=O)[C@H](CCSC)NC(=O)[C@H](CO)NC(=O)[C@@H](NC(=O)[C@@H]1CCCN1C(=O)[C@H](CC(=O)O)NC(C)=O)[C@@H](C)O)[C@@H](C)OP(=O)(O)O)C(C)C)C(=O)N[C@@H](CCCNC(=N)N)C(=O)N[C@@H](CCC(N)=O)C(=O)N[C@@H](CCCCN)C(=O)N[C@@H](CC(N)=O)C(N)=O [MELT2^P] (Ac-DPTSMEM[pT]EVFPRSIRQKN-NH2; N-terminus and C-terminus assumed) the “fold reduction in binding affinity” value (Bub1^289–359–Bub3^R217A) was 13 fold and the “fold reduction in binding affinity” value (Bub1^289–359–Bub3^R239A) was 25 fold.

Source: publication PMC3779320, “Bub3 reads phosphorylated MELT repeats to promote spindle assembly checkpoint signaling” (eLife, 2013)
